Experimental data published in article PMC4881748 (Journal of the American Chemical Society, 2016).

Legend:
[1] = target: BoNT/A LC (Clostridium botulinum, UniProt P0DPI0); assay type: biochemical, C. botulinum
[2] = test system: BoNT/A SNAP-25 cleavage in hiPSC-derived neurons; assay type: cell-based, human
[3] = test system: BoNT/A; conditions: cited from earlier work
[4] = test system: BoNT/A SNAP-25 cleavage in hiPSC-derived neurons; assay type: cell-based, human; remark: listed apart in the source

BoNT/A LC, sequence (P0DPI0 2-448 limits assumed): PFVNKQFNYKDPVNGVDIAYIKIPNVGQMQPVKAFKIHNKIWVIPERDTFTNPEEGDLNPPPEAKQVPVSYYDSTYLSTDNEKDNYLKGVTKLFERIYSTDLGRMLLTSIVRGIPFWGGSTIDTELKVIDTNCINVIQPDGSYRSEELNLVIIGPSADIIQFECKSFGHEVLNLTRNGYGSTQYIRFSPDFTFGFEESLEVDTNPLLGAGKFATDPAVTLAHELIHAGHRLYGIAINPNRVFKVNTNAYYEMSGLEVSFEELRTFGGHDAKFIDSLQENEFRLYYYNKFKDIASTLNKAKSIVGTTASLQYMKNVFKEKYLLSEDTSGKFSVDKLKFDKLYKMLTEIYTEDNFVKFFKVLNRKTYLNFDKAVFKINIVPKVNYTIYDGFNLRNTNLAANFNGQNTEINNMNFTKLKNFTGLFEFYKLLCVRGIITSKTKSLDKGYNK

Row | Compound | Inhibition in the LC enzyme assay [1] | Inhibition of SNAP-25 cleavage with delayed inhibitor addition [2] | EC50, SNAP-25 protection in cellular assay [4] | also measured
1 | O=C(O)CCC(=O)NO [4-(hydroxyamino)-4-oxobutanoic acid] | did not demonstrate any inhibition | – | – | –
2 | O=C1CCC(=O)N1O [N-hydroxysuccinimide (NHS), N-hydroxysuccinimide] | did not demonstrate any inhibition | – | – | –
3 | CO/C1=C\C(C)=C\[C@@H](C)[C@@H](O)[C@@H](C)C/C(C)=C/C=C/[C@H](OC)[C@@H]([C@@H](C)[C@@H](O)[C@H](C)[C@@]2(O)C[C@@H](O)[C@H](C)[C@@H](C(C)C)O2)OC1=O [bafilomycin A1] | – | initially effective | – | Activity when added 0.5 h after toxin exposure [3]: reduced activity; Activity when added simultaneously or immediately after BoNT/A [3]: presented activity
4 | CC(=O)O[C@@H]1C[C@H](O)[C@@]23CO[C@@H](O)[C@]1(C)[C@@H]2C[C@@H](O)[C@]1(C)[C@@H]3C(=O)[C@H](OC(C)=O)[C@@]2(C)[C@H](c3ccoc3)C[C@H]3O[C@]321 [toosendanin] | – | initially effective | – | –
5 | N-acetyl-N-(benzyloxy)acetamide [Compound 10] | – | – | Inactive | –
6 | O-benzyl N-hydroxysuccinimide [Compound 7] | – | – | Inactive | –
